Key:
GIRK heteromers = target: T1, GIRK heteromers (UniProt P48542+P48549); assay: concentration-response after PIP2 hydrolysis by light-sensitive phosphatase, whole-cell patch-clamp in mammalian cells; assay type: cell-based; settings: stimulation of light-sensitive phosphatase, FIGS. 20A-20C
T1 construct: expressed in transfected cells; HEK293-T in the methods
T1 sequence (P48549 1-501): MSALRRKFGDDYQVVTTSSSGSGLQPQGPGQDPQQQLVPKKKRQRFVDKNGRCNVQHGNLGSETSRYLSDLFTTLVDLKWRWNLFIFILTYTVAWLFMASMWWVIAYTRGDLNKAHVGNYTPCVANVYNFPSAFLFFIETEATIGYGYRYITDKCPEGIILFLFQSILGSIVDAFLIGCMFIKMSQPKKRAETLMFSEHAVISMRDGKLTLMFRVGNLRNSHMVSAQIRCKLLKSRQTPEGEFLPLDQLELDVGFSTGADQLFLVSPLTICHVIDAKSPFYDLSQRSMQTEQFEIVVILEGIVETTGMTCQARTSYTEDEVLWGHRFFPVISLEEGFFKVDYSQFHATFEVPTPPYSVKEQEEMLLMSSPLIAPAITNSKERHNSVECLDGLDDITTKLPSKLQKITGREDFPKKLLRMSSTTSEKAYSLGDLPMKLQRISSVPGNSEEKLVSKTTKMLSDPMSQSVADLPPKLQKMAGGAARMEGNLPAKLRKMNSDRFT
T1 sequence (P48542 1-425): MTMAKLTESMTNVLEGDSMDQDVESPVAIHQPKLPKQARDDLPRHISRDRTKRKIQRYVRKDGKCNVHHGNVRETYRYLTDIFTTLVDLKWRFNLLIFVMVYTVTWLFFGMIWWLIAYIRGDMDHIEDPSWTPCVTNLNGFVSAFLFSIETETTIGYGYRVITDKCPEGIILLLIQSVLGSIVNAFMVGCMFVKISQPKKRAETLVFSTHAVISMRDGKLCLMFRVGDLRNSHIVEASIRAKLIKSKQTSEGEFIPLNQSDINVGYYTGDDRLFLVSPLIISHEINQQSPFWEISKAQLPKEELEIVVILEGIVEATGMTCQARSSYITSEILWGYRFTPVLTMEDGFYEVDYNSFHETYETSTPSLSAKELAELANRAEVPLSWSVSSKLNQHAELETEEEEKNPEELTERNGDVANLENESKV
Source text: The MD simulations indicated a PIP2-dependent activation effect by ML297 and the GAT compounds in GIRK heteromers leading to channel gating. To experimentally test the role of PIP2 in channel activation by ML297 and the GAT compounds, the inventors proceeded to first manipulate PIP2 levels by inducing a light-sensitive phosphatase in whole-cell patch-clamp experiments in mammalian cells and to examine the effects of the activating compounds (FIGS. 20A-20C).
(§1) Light-activated phosphatase system: The inventors used a light-activated phosphatase system to dephosphorylate PIP2 that is comprised of two fusion proteins: CRY2-5-ptaseOCRL contains the photolyase domain of cryptochrome 2 (CRY2) and the inositol 5-phosphatase domain of the […] oculocerebrorenal syndrome protein (OCRL), while CIBN-CAAX contains the CRY2 binding domain (CIBN) and a C-terminal CAAX box for plasma membrane targeting. When CRY2-5-ptaseOCRL and CIBN-CAAX fusion proteins are co-expressed and exposed to blue light between 458-488 nm, the 5-ptase is localized to the plasma membrane, where it dephosphorylates PIP2. […] The 5-ptaseOCRL system was activated using a 460 nm LED (Luminus) that was focused on the cells through the objective lens of an inverted microscope (Nikon).
Patch-clamp recording: Whole-cell currents were recorded with an Axopatch 200B amplifier (Molecular Devices) controlled via a USB-interface (National Instruments) using WinWCP software (University of Strathclyde). Currents were acquired through a lowpass Bessel filter at 2 kHz and were digitized at 10 kHz. […] Cells for study were selected based on GFP expression using an epifluorescence microscope (Nikon). […] The barium-sensitive component of the current, observed when cells were perfused with the high-K^+ buffer, was analyzed and was determined by perfusing 5 mM BaCl2 in the high-K^+ buffer at the end of each experiment. […]

GIRK1/2 = target: T2, GIRK1/2 (UniProt P48542+P48549); assay: current inhibition by light-activated phosphatase 5-ptaseOCRL, HEK293 whole-cell patch-clamp, GIRK1/2; assay type: cell-based, human GIRK1, mouse GIRK2; design: expressed in transfected cells; settings: for percentage of GIRK1/2 channel current remaining following activation of 5-ptaseOCRL (in words) / τ of current-inhibition, GIRK1/2 (in words): 10 μM compound versus control; for protection from current inhibition, rank order, GIRK1/2: current levels and kinetics of inhibition
T2 sequence (P48549 1-501): T1 sequence (P48549 1-501)
T2 sequence (P48542 1-425): T1 sequence (P48542 1-425)
Source text: The inventors next pursued whole-cell patch-clamp experiments to further validate the model predictions and excised-patch results. Expression of a light-activated phosphatase that upon exposure to blue light dephosphorylates PI(4,5)P2 to PI(4)P and inhibits GIRK currents allowed recording of macroscopic currents in the absence and presence of ML297 and the two brain-specific GAT compounds. […] Since GAT1508 and ML297 only bind GIRK1 or GIRK1-like (i.e. “FD-containing”, “FD”=mimics the contribution of GIRK1 residues F137 and D173, see Example 2) subunits resulting in corresponding changes in channel-PIP2 interactions and channel activity, the inventors next sought to compare channel subunit specific interactions with PIP2 for subunits bound to the ligand (P-FD) versus those not bound to the ligand (P-WT) (FIGS. 19, 38A).
Culture of HEK293 cells: HEK293-T cells were obtained from ATCC and maintained in DMEM medium supplemented with 10% FBS and 1% penicillin and streptomycin (Hyclone). For patch-clamp studies, cells were seeded on glass coverslips and transfected 24-hours later using a polyethylenimine solution (1 mg/ml) at a ratio of 8 μl per μg of DNA. To study GIRK-currents, cells were transfected with 0.75 μg each of plasmids encoding GIRK1, GIRK2 or GIRK4 as indicated. In the optogenetic experiments, cells were co-transfected with plasmids encoding 5-ptaseOCRL and CIBN-CAAX, as previously described. 5-ptaseOCRL and CIBN-CAAX were a kind gift from the DeCamilli lab, Yale CT. All experiments were performed at room temperature 24-36 hours post transfection.
as §1
Patch-clamp recording: Whole-cell currents were recorded with an Axopatch 200B amplifier (Molecular Devices) controlled via a USB-interface (National Instruments) using WinWCP software (University of Strathclyde). Currents were acquired through a lowpass Bessel filter at 2 kHz and were digitized at 10 kHz. […] Cells for study were selected based on GFP expression using an epifluorescence microscope (Nikon). […] Cells were perfused via a multi-channel gravity-driven perfusion manifold with a physiological buffer comprising: 135 mM NaCl, 5 mM KCl, 1.2 mM MgCl2, 1.5 mM CaCl2, 8 mM Glucose, and 10 mM HEPES; pH 7.4, then quickly transitioning to a high-K^+ buffer comprising 5 mM NaCl, 135 mM KCl, 1.2 mM MgCl2, 1.5 mM CaCl2, 8 mM Glucose, and 10 mM HEPES; pH 7.4. The barium-sensitive component of the current, observed when cells were perfused with the high-K^+ buffer, was analyzed and was determined by perfusing 5 mM BaCl2 in the high-K^+ buffer at the end of each experiment. The 5-ptaseOCRL system was activated using a 460 nm LED (Luminus) that was focused on the cells through the objective lens of an inverted microscope (Nikon). […] ML297, GAT1508 or GAT1521 were maintained as 10 mM stock solutions in DMSO and were diluted to concentrations between 10 μM and 1 nM using the high K^+ buffer for patch-clamp experiments.

| SMILES | decrease in potency following hydrolysis of PIP2 (GIRK heteromers) | percentage of GIRK1/2 channel current remaining following activation of 5-ptaseOCRL (in words) (GIRK1/2) | τ of current-inhibition, GIRK1/2 (in words) (GIRK1/2) | protection from current inhibition, rank order, GIRK1/2 (GIRK1/2) |
| --- | --- | --- | --- | --- |
| Cc1cc(NC(=O)Nc2ccc(Br)s2)n(-c2ccccc2)n1 [GAT1508, 1-(5-bromothiophen-2-yl)-3-(3-methyl-1-phenyl-1H-pyrazol-5-yl)urea] | ~2 fold | increase | increase | GAT1508>GAT1521>ML297>Control |
| Cc1cc(NC(=O)Nc2ccc(C)s2)n(-c2ccccc2)n1 [GAT1521, 1-(3-methyl-1-phenyl-1H-pyrazol-5-yl)-3-(5-methylthiophen-2-yl)urea] | ~3.7 fold | increase | increase | GAT1508>GAT1521>ML297>Control |
| Cc1cc(NC(=O)Nc2ccc(F)c(F)c2)n(-c2ccccc2)n1 [ML297, reference compound] | ~3 fold | increase | increase | GAT1508>GAT1521>ML297>Control |

Source: patent US12351574B2, “Selective ligands for modulation of GIRK channels” (Northeastern University, priority 2018, dated 2025)
